Test results as given in patent US20110136897A1, “TOLL-LIKE RECEPTOR 9 AGONISTS FOR THE TREATMENT OF ANXIETY-RELATED DISORDERS AND INFLAMMATORY DISORDERS” (YISSUM RESEARCH DEVELOPMENT COMPANY OF THE HEBREW …, priority 2008, published 2011).
Entries after “also recorded” stand apart in the source; their conditions may differ.

What was measured:
RAW264.7 cells [1] = test: RT-PCR of inflammatory genes in RAW264.7 cells (Table 2); type: cell-based, mouse
Protocol: Real-time PCR (RT-PCR): Brains were dissected and tissues stored frozen at −70° C. until use. Hippocampal RNA was extracted using the RNeasy Tissue Mini Kit (Qiagen, Germany). Total RNA was reverse-transcribed (200 ng) using Impromp-II reverse transcriptase (Promega, Madison, Wis.) as instructed. RT-PCR was performed using Power SYBR®Green PCR Master Mix (Applied Biosystems, UK) in a 7900 HT Sequence Detection System (Applied Biosystems, Foster City, Calif.). Quantification was assessed at the logarithmic phase of the PCR reaction. The PCR annealing temperature was 60° C. for all primer pairs. GAPDH was used as a house-keeping gene.
Shown are fold differences in RT-PCR products of RAW264.7 cells incubated with the noted doses of mEN101 or ODN1826. Note that ODN1826 affects IL1α, -1β, -6, -10, -12 and ICAM-1 gene expression at concentrations as low as 10 nM, whereas considerably higher doses of mEN101 are needed to attain similar effects. Nevertheless, mEN101 affects inflammatory gene expression even at 10 nM. 1 μg/ml LPS was used as positive control. (n=3, p<0.05 Mann-Whitney U-test compared to untreated controls, for all the data shown).

RAW264.7 cells [2] = test: HSP90β mRNA RT-PCR in RAW264.7 cells; type: cell-based, mouse; settings: 24 hour incubation
Protocol: Cell cultures: The mouse macrophage cell line RAW 264.7 (ATCC, MD) was cultured in Dulbecco's modified Eagle's medium (DMEM) (Biological Industries, Israel) supplemented with 10% heat-inactivated fetal bovine serum (Biological Industries, Israel), 100 μg/ml streptomycin (Sigma), 100 U/ml penicillin (Sigma) and 2 mM 1-glutamine (Biological Industries, Israel) at 37° C. in a humidified atmosphere with 5% CO2.
Real-time PCR (RT-PCR): RAW264.7 cells and spleen were used for RT-PCR. 1×10^6 RAW264.7 cells were grown in 2 ml medium in 6 wells plates until 80% confluence was obtained. Total RNA was extracted using the RNeasy kit (Qiagen, CA, USA). Spleen and brain tissues' RNA was extracted using the RNeasy Tissue Mini Kit (Qiagen, Germany). In all cases, total RNA was reverse-transcribed (200 ng) using Impromp-II reverse transcriptase (Promega, WI, USA) according to manufacturer's instructions. RT-PCR was performed using Power SYBR®Green PCR Master Mix (Applied Biosystems, UK) in a 7900 HT Sequence Detection System (Applied Biosystems, CA). Quantification was assessed at the logarithmic phase of the PCR reaction. The PCR annealing temperature was 60° C. for all primer pairs.

RAW264.7 cells [3] = test: LPS-induced NO production with or without corticosterone after ODN1826 pre-incubation; type: cell-based, mouse; settings: 24 hours before LPS 1 μg/ml with corticosterone
Protocol: Determination of nitric oxygen (NO) production: The nitrite concentration in the medium was measured as an indicator of NO production according to the Griess reaction. 1×10^5 RAW264.7 cells were grown in 0.5 ml medium in 48-wells plate until 80% confluence was obtained. […] (1% sulfanilamide, 0.1% naphthylethylenediamine dihydrochloride, 5% H3PO4). Absorbance was read at 540 nm after 10 minutes using SPECTRAFluor Plus spectrophotometer (TECAN, UK).
In order to study the functional effects of TLR9 activation on GR signaling, RAW264.7 cells were incubated with varying concentrations of ODN1826 (SEQ ID NO: 2) for 24 hours and the medium was replaced with one containing LPS (1 μg/ml) with or without […] corticosterone (CORT) for an additional 24 hours. As expected, CORT blocked lipopolysaccharide (LPS)-induced NO production.

FVB/N mice = test: Predator (cat) odor stress paradigm, elevated plus maze (EPM) and acoustic startle response (ASR) one week post-exposure; type: in vivo, mouse

For “5′-TCCATGACGTTCCTGACGTT-3′ [ODN1826, reference compound]”, the “ICAM-1 RT-PCR product” value (RAW264.7 cells [1]; 10 nM) was −3.57 log2 from NT, the “IL1a RT-PCR product” value (RAW264.7 cells [1]; 10 nM) was 4.18 log2 from NT and the “IL1b RT-PCR product” value (RAW264.7 cells [1]; 10 nM) was 4.40 log2 from NT. For the same substance, the “IL6 RT-PCR product” value (RAW264.7 cells [1]; 10 nM) was 3.57 log2 from NT, the “IL10 RT-PCR product” value (RAW264.7 cells [1]; 10 nM) was 3.74 log2 from NT and the “IL12 RT-PCR product” value (RAW264.7 cells [1]; 10 nM) was 3.57 log2 from NT. The “ICAM-1 RT-PCR product” value (RAW264.7 cells [1]; 100 nM) was −3.14 log2 from NT, the “IL1a RT-PCR product” value (RAW264.7 cells [1]; 100 nM) was 5.33 log2 from NT and the “IL1b RT-PCR product” value (RAW264.7 cells [1]; 100 nM) was 5.63 log2 from NT. The “IL6 RT-PCR product” value (RAW264.7 cells [1]; 100 nM) was 3.71 log2 from NT, the “IL10 RT-PCR product” value (RAW264.7 cells [1]; 100 nM) was 4.28 log2 from NT and the “IL12 RT-PCR product” value (RAW264.7 cells [1]; 100 nM) was 4.28 log2 from NT. The “HSP90β mRNA levels” value (RAW264.7 cells [2]) was “significantly increased HSP90β mRNA levels”, the “effect on LPS-induced NO production / cell activation” value (RAW264.7 cells [3]; higher doses (10-100 nM)) was “increased cell activation” and the “effect on CORT inhibition of LPS-induced NO production” value (RAW264.7 cells [3]; low doses (0.01-1 nM)) was “potentiated CORT anti-inflammatory effect”. For the same substance, the “stress-induced anxiety scores (EPM score, startle response, habituation to startle)” value (FVB/N mice; 0.5 μg/kg i.p. daily for 4 days, tested day 7, compared to stressed mice) was “diminished stress-induced anxiety scores; also recorded: lower EPM scores” and the “anxiety index (AI)” value (FVB/N mice; low dose (0.5 μg/kg), compared to saline injected stressed mice) was “decreased it”.
